System: intact platelets
Assay: mitochondrial respiration of intact platelets (titration protocol)
Format: cell-based, human
Procedure: Data was recorded with DatLab software 4.3.
Integrated respiration of intact cells with endogenous mitochondrial substrates was evaluated with two different titration protocols. Platelets were suspended in either PBS-glucose or the control subject's own plasma. […] To evaluate the contribution of respiration independent of ADP phosphorylation, oligomycin (1 μg/ml, ATP-synthase inhibitor) was sequentially added inducing LEAK respiration state (also known as oligomycin-induced state 4 respiration). […] Rotenone (2 μM, complex I [CI] inhibitor) and antimycin-A (1 μg/ml, complex III [CIII] inhibitor) were then sequentially added to inhibit the ETS providing the residual oxygen consumption which was subtracted from the different respiratory parameters in further analyses.
In order to evaluate the influence on maximal respiratory capacity by the inhibition of ATP-synthase, a second experimental protocol was performed, where ETS capacity was evaluated by direct titration of FCCP after stabilization of routine respiration, followed by the same inhibitors as above. Control ratios were derived from maximal, FCCP-stimulated, respiration divided by LEAK respiration (ETS/LEAK) and routine respiration (ETS/routine).

C=C(C)[C@H]1Cc2c(ccc3c2O[C@@H]2COc4cc(OC)c(OC)cc4[C@@H]2C3=O)O1 [rotenone]
inhibition at 2 µM (Homo sapiens, Platelet, read-out: inhibition of respiration): ~99%

antimycin-A
further inhibition of respiration after rotenone (intact platelets, antimycin-A 1 μg/ml added after rotenone 2 μM): no further inhibition

From US20150253306A1 (priority 2012, published 2015)
